In PubChem BioAssay (NCI):
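48-hour exposure; five concentrations; linearly interpolated endpoints. GI50: concentration for 50% inhibition of growth. TGI is the concentration that stops growth completely.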

Experiments:
Assay in all cases: growth of human tumour cells (NCI), 48 h
786-0 renal = system: 786-0 renal
A498 renal = system: A498 renal
A549 NSCLC = system: A549 NSCLC
ACHN renal = system: ACHN renal
BT-549 breast = system: BT-549 breast
CAKI-1 renal = system: CAKI-1 renal
CCRF-CEM leukemia = system: CCRF-CEM leukemia
COLO 205 colon = system: COLO 205 colon
DU-145 prostate = system: DU-145 prostate
EKVX NSCLC = system: EKVX NSCLC
HCC-2998 colon = system: HCC-2998 colon
HCT-116 colon = system: HCT-116 colon
HCT-15 colon = system: HCT-15 colon
HL-60(TB) leukemia = system: HL-60(TB) leukemia
HOP-62 NSCLC = system: HOP-62 NSCLC
HOP-92 NSCLC = system: HOP-92 NSCLC
HS 578T breast = system: HS 578T breast
HT29 colon = system: HT29 colon
IGROV1 ovarian = system: IGROV1 ovarian
K-562 leukemia = system: K-562 leukemia
KM12 colon = system: KM12 colon
LOX IMVI melanoma = system: LOX IMVI melanoma
M14 melanoma = system: M14 melanoma
MALME-3M melanoma = system: MALME-3M melanoma
MCF7 breast = system: MCF7 breast
MDA-MB-231 breast = system: MDA-MB-231 breast
MDA-MB-435 = system: MDA-MB-435
MDA-MB-468 breast = system: MDA-MB-468 breast
MOLT-4 leukemia = system: MOLT-4 leukemia
NCI-H226 lung = system: NCI-H226 lung
NCI-H23 lung = system: NCI-H23 lung
NCI-H460 lung = system: NCI-H460 lung
NCI-H522 lung = system: NCI-H522 lung
OVCAR-3 ovarian = system: OVCAR-3 ovarian
OVCAR-4 ovarian = system: OVCAR-4 ovarian
OVCAR-5 ovarian = system: OVCAR-5 ovarian
OVCAR-8 ovarian = system: OVCAR-8 ovarian
PC-3 prostate = system: PC-3 prostate
RPMI-8226 leukemia = system: RPMI-8226 leukemia
RXF 393 renal = system: RXF 393 renal
SF-268 CNS = system: SF-268 CNS
SF-295 CNS = system: SF-295 CNS
SF-539 CNS = system: SF-539 CNS
SK-MEL-28 melanoma = system: SK-MEL-28 melanoma
SK-MEL-5 melanoma = system: SK-MEL-5 melanoma
SK-OV-3 ovarian = system: SK-OV-3 ovarian
SN12C renal = system: SN12C renal
SNB-19 CNS = system: SNB-19 CNS
SNB-75 CNS = system: SNB-75 CNS
SR leukemia = system: SR leukemia
SW-620 colon = system: SW-620 colon
T-47D breast = system: T-47D breast
TK-10 renal = system: TK-10 renal
U251 CNS = system: U251 CNS
UACC-257 melanoma = system: UACC-257 melanoma
UACC-62 melanoma = system: UACC-62 melanoma
UO-31 renal = system: UO-31 renal

## Cc1cc(N=C(N)c2ccccc2)ccc1OCCCCCCCCn1ccnc1
786-0 renal
  GI50: 483 nM
  TGI: 4580 nM
A498 renal
  GI50: 8120 nM
  TGI: 23700 nM
A549 NSCLC
  GI50: 803 nM
  TGI: 14900 nM
ACHN renal
  GI50: 547 nM
  TGI: 13200 nM
BT-549 breast
  GI50: 1450 nM
  TGI: 11100 nM
CAKI-1 renal
  GI50: 580 nM
  TGI: 12000 nM
CCRF-CEM leukemia
  GI50: 371 nM
  TGI: 12400 nM
COLO 205 colon
  GI50: 354 nM
  TGI: 1450 nM
DU-145 prostate
  GI50: 407 nM
  TGI: 14300 nM
EKVX NSCLC
  GI50: 422 nM
  TGI: 13300 nM
HCC-2998 colon
  GI50: 224 nM
  TGI: 1760 nM
HCT-116 colon
  GI50: 375 nM
  TGI: 11400 nM
HCT-15 colon
  GI50: 361 nM
  TGI: 11500 nM
HL-60(TB) leukemia
  GI50: 211 nM
  TGI: 659 nM
HOP-62 NSCLC
  GI50: 441 nM
  TGI: 15200 nM
HOP-92 NSCLC
  GI50: 589 nM
  TGI: 7870 nM
HS 578T breast
  GI50: 991 nM
  TGI: 12100 nM
HT29 colon
  GI50: 239 nM
  TGI: 667 nM
IGROV1 ovarian
  GI50: 634 nM
  TGI: 12400 nM
K-562 leukemia
  GI50: 283 nM
  TGI: 11200 nM
KM12 colon
  GI50: 444 nM
  TGI: 13600 nM
LOX IMVI melanoma
  GI50: 327 nM
  TGI: 1860 nM
M14 melanoma
  GI50: 323 nM
  TGI: 1310 nM
MALME-3M melanoma
  GI50: 323 nM
  TGI: 1590 nM
MCF7 breast
  GI50: 312 nM
  TGI: 10700 nM
MDA-MB-231 breast
  GI50: 540 nM
  TGI: 4610 nM
MDA-MB-435
  GI50: 225 nM
  TGI: 573 nM
MDA-MB-468 breast
  GI50: 155 nM
  TGI: 694 nM
MOLT-4 leukemia
  GI50: 565 nM
  TGI: 17700 nM
NCI-H226 lung
  GI50: 332 nM
  TGI: 1790 nM
NCI-H23 lung
  GI50: 262 nM
  TGI: 4060 nM
NCI-H460 lung
  GI50: 388 nM
  TGI: 11600 nM
NCI-H522 lung
  GI50: 245 nM
  TGI: 986 nM
OVCAR-3 ovarian
  GI50: 366 nM
  TGI: 13100 nM
OVCAR-4 ovarian
  GI50: 2890 nM
  TGI: 35300 nM
OVCAR-5 ovarian
  GI50: 456 nM
  TGI: 11500 nM
OVCAR-8 ovarian
  GI50: 471 nM
  TGI: 2950 nM
PC-3 prostate
  GI50: 460 nM
  TGI: 16500 nM
RPMI-8226 leukemia
  GI50: 352 nM
  TGI: 1630 nM
RXF 393 renal
  GI50: 231 nM
  TGI: 1570 nM
SF-268 CNS
  GI50: 1220 nM
  TGI: 16600 nM
SF-295 CNS
  GI50: 259 nM
  TGI: 929 nM
SF-539 CNS
  GI50: 227 nM
  TGI: 567 nM
SK-MEL-28 melanoma
  GI50: 1010 nM
  TGI: 8680 nM
SK-MEL-5 melanoma
  GI50: 325 nM
  TGI: 1170 nM
SK-OV-3 ovarian
  GI50: 512 nM
  TGI: 14900 nM
SN12C renal
  GI50: 440 nM
  TGI: 7870 nM
SNB-19 CNS
  GI50: 753 nM
  TGI: 17700 nM
SNB-75 CNS
  GI50: 418 nM
  TGI: 7300 nM
SR leukemia
  GI50: 327 nM
  TGI: 19400 nM
SW-620 colon
  GI50: 463 nM
  TGI: 20900 nM
T-47D breast
  GI50: 594 nM
  TGI: 21500 nM
TK-10 renal
  GI50: 1460 nM
  TGI: 17200 nM
U251 CNS
  GI50: 355 nM
  TGI: 3100 nM
UACC-257 melanoma
  GI50: 1470 nM
  TGI: 13000 nM
UACC-62 melanoma
  GI50: 494 nM
  TGI: 7580 nM
UO-31 renal
  GI50: 680 nM
  TGI: 8270 nM
